Measured values taken from patent US20230266303A1, “SYSTEM” (GTINVENT LIMITED, priority 2020, published 2023).
“And” between values parts separate entries of the source, which are not always exact repeats. Identical values can stand only once.

Experiments:
Format in all cases: cell-based, human
dSH-SY5Y cells = experiment: Internalisation of dGAE-488 into cells by confocal microscopy
Method: Undifferentiated SH-SY5Y human neuroblastoma cells were grown in Dulbecco's Modified Eagle Medium/Nutrient Mixture F-12 (DMEM/F-12) supplemented with 10% Foetal Calf Serum (FCS), 1% Penicillin/Streptomycin (P/S) and 1% L-glutamine. For differentiation, SH-SY5Y cells were plated at a density of 50,000 cells per well in 24-well plates or 300,000 cells per well in 6-well plates. For immunofluorescence, cells were plated onto Menzel-Gläser coverslips (Thermo Scientific). For live-cell imaging, cells were plated on 35-mm dishes on a 1.5-mm coverslip (Mattek). On the first day of differentiation, media was replaced with low-serum culture media (DMEM/F-12 containing 1% FCS, 1% P/S and 1% L-glutamine) containing 10 μM all-trans retinoic acid (RA) (Sigma-Aldrich) and cells were incubated for 48 h. On day 3, this process was repeated with fresh RA and cells were incubated for a further 48 h. On day 5, the cells were washed once in serum-free culture media to remove traces of serum. […] Differentiated cells (dSH-SY5Y) were ready to use for experiments on day 7. […]
(§1) FIJI (https://fiji.sc) imaging processing package (J. Schindelin et al., Nat. Methods, vol. 9, no. 7, pp. 676-682, (2012)) was used for all image analysis. For quantification of fluorescence intensities, images were Z-projected to maximal intensity. […] Area-integrated intensity and mean grey value were measured as well as three selections from around the cell with no fluorescence (background). The corrected total cell fluorescence (CTCF) was then calculated using the equation: […]
For quantification of internalised dGAE-488, a focal plane from the middle of the cell that contained maximal DAPI fluorescence was selected and subjected to analysis.
The uptake of soluble and aggregated dGAE into dSH-SY5Y cells was investigated in order to examine whether aggregation state affects the efficiency of internalisation. The labelled dGAE-488 form was used to permit uptake to be visualised and measured having corrected for total cell fluorescence. […]

[1] = tested on: endogenous tau in dSH-SY5Y cells; experiment: Immunofluorescence of endogenous tau (AT180, AT8, Tau-1) after dGAE-488 exposure; conditions: 1 μM soluble dGAE-488, 24 h
Method: Cell culture medium was aspirated from dSH-SY5Y cells and washed once with PBS. Cells were fixed in 4% (w/v) paraformaldehyde (PFA) in PBS for 15 minutes followed by three washes in PBS. For permeabilization, the cells were incubated in 0.25% (v/v) Triton X-100 in PBS for 10 minutes. Cells were blocked in 2% (w/v) BSA in PBS for 1 h, followed by three washes in PBS. Primary antibodies diluted in 2% (w/v) BSA in PBS and were incubated with the cells for 1 h. The primary antibodies and dilutions used were; AT180 (anti-pT231) (1:250) (Thermo Scientific), AT8 (anti-pS202-T205) (1:500) (Thermo Scientific) and Tau1 (dephosphorylated tau at S195, 198, 199 and 202) (Merck Millipore). Cells were incubated with goat anti-mouse-Alexa Fluor® 594 (1:1000) (Invitrogen™, Thermo Scientific) diluted in 2% (w/v) BSA in PBS for 1 h in the dark. Cells were washed 3 times in PBS between antibody incubations. Cells were mounted onto glass slides using Prolong Gold mounting medium containing 4,6-diamidino-2-phenylindole (DAPI). […]
as §1
Therefore, it was further investigated whether internalised soluble dGAE-488 may be capable of altering the aggregation or phosphorylation state of endogenous tau. […] Cells were examined for colocalisation of internalised dGAE-488 and endogenous tau and the fluorescence intensity of labelled tau in the cell body was quantified in individual cells for each antibody. […] We have previously shown that tau dephosphorylated between amino acids 192-204 detected using Tau-1 antibody, is found in the nucleus in dSH-SY5Y cells (Maina et al., Acta Neuropath. Comm, Vol. 6 No. 70, pp 1-13 (2018)).

[2] = tested on: acidic vesicles (lysosomes and endosomes) in dSH-SY5Y cells; experiment: LysoTracker labelling of acidic organelles and colocalisation with dGAE-488; conditions: soluble dGAE-488, 24 h; buffer 100±5.23%
Method: Cells were plated on 35-mm dishes on a 1.5-mm coverslip (Mattek). Following differentiation, dGAE-488 (5 μM) was added to the cells for 24 h. For labelling lysosomes and endosomes, LysoTracker® red (Life Technologies) was diluted in culture media at a final concentration of 50 nM and incubated for 90 mins before imaging using a Leica SP8 confocal microscope.
All confocal microscopy imaging was carried using a Leica SP8 confocal microscope. The instrument setting used PMT 3 and PMT Trans channels/lasers and images were acquired with a HC PLAPoCs2 63×/1.40 oil-immersion objective lens. Samples were scanned sequentially to prevent spectral bleed through. All images were collected as Z-stacks for all channels using a step size of 0.5 μm. Five to ten Z-stacks were taken for each sample and each experiment was repeated three times or more. […]
Intracellular fluorescent punctate particles were observed within the cytoplasm, close to the nucleus after 24 h of exposure of neurons to soluble dGAE-488. […] There was a significant increase in the intensity of the LysoTracker® fluorescence in cells exposed to soluble dGAE-488 compared to buffer-treated control cells (211.9±9.9%, p<0.0001; FIG. 6Ai, Aii).

dGAE-488: dGAE covalently labelled with Alexa Fluor 488
488 fluorescence intensity in the cell body (internalisation) (dSH-SY5Y cells; aggregated (72 h agitated) dGAE-488, 1 μM, 24 h, mean±SEM, b194 prints AU per cell): 474.1±95.97 AU and 474±96 AU | incubation time at which internalised protein is detected in cells (dSH-SY5Y cells; soluble form, 5 μM dGAE-488, live confocal imaging t=0 h to 14 h): 2 h | AT8 (pS202-T205) fluorescence intensity as a percentage of buffer-treated cells ([1]; buffer 100±3.51%): 270.7±22.5% | AT180 (pT231) fluorescence intensity as a percentage of buffer-treated cells ([1]; buffer 100±5.2%): 143.5±7.8% | Tau-1 (dephosphorylated tau) fluorescence intensity as a percentage of buffer-treated cells ([1]; buffer 100±7.3%): 59.17±3.6% | LysoTracker fluorescence intensity as a percentage of buffer-treated cells [2]: 211.9±9.89% and 211.9±9.9%
